Laboratory results taken from patent US10342866B2, “Compositions and methods for immunotherapies comprising small molecule integrin receptor-ligand agonist adjuvants” (7 Hills Interests LLC, priority 2015, dated 2019).

Tests used:
αLβ2 (LFA-1) = molecular target: T1, αLβ2 (LFA-1) (Homo sapiens, UniProt P05107+P20701); test: Static cell adhesion assay, αLβ2-mediated adhesion to ICAM-1; type: cell-based; settings: Jurkat (a4-) or HSB cells on sub-optimal ICAM-1 coating; PBS, 1 mM MgCl2, 50% FBS; read-out: Activity (EC50) in enhancing adhesion mediated by αLβ2 (LFA-1)
T1 construct: the cells expressed the appropriate integrin receptor either endogenously (Jurkat/α4β1, K562/α5β1, Jurkat (a4-)/αLβ2, HSB/αLβ2); endogenous in cells; host or cells: Jurkat (α4-) or HSB
T1 sequence (P20701 26-1170): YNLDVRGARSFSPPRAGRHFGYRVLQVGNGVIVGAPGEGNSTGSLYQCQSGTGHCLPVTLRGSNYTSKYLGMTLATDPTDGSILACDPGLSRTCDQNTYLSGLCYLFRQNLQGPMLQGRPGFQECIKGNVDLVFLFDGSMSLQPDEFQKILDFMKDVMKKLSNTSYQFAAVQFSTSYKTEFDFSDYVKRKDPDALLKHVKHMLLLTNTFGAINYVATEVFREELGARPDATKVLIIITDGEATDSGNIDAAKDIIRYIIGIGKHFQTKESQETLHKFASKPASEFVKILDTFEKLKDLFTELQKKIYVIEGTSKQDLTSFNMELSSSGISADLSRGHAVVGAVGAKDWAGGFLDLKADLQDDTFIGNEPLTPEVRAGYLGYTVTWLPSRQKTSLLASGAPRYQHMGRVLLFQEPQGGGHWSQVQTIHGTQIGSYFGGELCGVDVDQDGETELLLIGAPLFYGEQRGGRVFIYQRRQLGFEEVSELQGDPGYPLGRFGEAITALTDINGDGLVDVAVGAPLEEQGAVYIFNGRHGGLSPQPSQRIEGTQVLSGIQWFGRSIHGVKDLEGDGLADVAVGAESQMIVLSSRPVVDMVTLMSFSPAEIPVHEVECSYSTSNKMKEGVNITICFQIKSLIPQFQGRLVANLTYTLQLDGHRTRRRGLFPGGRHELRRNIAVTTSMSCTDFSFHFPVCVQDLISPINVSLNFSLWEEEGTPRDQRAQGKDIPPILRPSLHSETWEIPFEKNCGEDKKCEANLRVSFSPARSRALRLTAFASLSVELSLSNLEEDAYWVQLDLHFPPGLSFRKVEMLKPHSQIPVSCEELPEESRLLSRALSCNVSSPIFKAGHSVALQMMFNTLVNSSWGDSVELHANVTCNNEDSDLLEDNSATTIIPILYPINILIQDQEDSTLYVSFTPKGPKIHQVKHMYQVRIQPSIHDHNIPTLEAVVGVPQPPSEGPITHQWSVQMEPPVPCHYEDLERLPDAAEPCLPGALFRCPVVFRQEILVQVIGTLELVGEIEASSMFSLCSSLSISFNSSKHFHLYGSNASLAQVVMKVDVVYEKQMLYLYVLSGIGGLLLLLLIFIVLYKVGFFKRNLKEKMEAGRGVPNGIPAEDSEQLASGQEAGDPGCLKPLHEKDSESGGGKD
T1 sequence (P05107 23-769): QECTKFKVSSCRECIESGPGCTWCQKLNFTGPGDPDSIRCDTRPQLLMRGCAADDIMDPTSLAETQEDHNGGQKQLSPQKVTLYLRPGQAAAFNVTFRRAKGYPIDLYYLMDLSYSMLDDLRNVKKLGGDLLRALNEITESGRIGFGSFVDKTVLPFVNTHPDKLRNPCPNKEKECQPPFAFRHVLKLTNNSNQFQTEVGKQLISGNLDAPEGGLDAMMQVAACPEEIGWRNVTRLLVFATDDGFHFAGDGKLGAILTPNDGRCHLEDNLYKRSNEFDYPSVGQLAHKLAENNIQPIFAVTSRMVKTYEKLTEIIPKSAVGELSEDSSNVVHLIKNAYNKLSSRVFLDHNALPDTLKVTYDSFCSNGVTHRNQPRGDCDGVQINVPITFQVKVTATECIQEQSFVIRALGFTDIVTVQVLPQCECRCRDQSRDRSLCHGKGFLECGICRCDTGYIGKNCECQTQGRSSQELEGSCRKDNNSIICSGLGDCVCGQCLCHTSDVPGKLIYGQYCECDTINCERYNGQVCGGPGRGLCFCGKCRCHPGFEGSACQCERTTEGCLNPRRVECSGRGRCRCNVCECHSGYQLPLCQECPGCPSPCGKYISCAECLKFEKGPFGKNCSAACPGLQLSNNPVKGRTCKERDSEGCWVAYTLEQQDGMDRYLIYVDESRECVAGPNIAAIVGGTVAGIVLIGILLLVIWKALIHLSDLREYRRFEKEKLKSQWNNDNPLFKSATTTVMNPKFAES
Description: (§1) For all assays described, C4 was dissolved in DMSO to make a 1 mM stock solution, and dilutions were made in assay buffer or media to yield the desired final working concentrations in 1% DMSO (vehicle). Human VCAM-1, MAdCAM-1 Fc chimera, ICAM-1, and SDF-1α were purchased from R&D Systems (Minneapolis, Minn.). Human serum fibronectin was purchased from Sigma-Aldrich (St. Louis, Mo.). The cell lines NK-92, Jurkat, K562, and HSB were obtained from American Type Culture Collection (Manassas, Va.) and were maintained in recommended culture media. The mutant Jurkat cell line not expressing α4 integrin (Jurkat [a4-]) was a gift from Dr. David Rose, University of California San Diego, La Jolla, Calif.
(§2) Ligands (VCAM-1, MAdCAM-1, fibronectin, or ICAM-1) in 50 μL of 50 mM Tris-HCl (pH 7.4), 150 mM NaCl, (TBS) were added to wells of a 96-well plate and allowed to coat overnight at 4° C. In order to maximize the window to evaluate agonist activity, a sub-optimal coating concentration of ligand was used. This ligand concentration corresponded approximately to that which would yield ≤5% adhesion as determined by dose-response curves of ligand binding to the appropriate cell type. All assays were performed as previously described. Briefly, 2×10^6 cells were labeled for 30 minutes with calcein-AM (Molecular Probes), washed, resuspended in binding buffer, and added to ligand-coated plates (2×10^5 cells/well) that had been blocked with 2% BSA. The binding buffer was PBS with 1 mM MgCl2 and 50% FBS (VCAM-1 and ICAM-1 assays) or TBS with 1 mM MnCl2 and 50% FBS (MAdCAM-1 and fibronectin assays). After a 30-minute incubation at 37° C., the plates were washed 3 times with the respective binding buffer (except without the serum), the adherent cells were lysed, and fluorescence was measured on a Tecan Safire^2 plate reader. Standard curves were run for each assay to convert fluorescence units to cell number. For each assay, the cells expressed the appropriate integrin receptor either endogenously (Jurkat/α4β1, K562/α5β1, Jurkat (a4-)/αLβ2, HSB/αLβ2) or in recombinant form (K562/α4β7). Generation of the recombinant K562 cell line has been described.

α4β1 (VLA-4) = molecular target: T2, α4β1 (VLA-4) (Homo sapiens, UniProt P05556+P13612); test: Static cell adhesion assay, α4β1-mediated adhesion to VCAM-1; type: cell-based; settings: Jurkat cells on sub-optimal VCAM-1 coating; PBS, 1 mM MgCl2, 50% FBS; read-out: Activity (EC50) in enhancing adhesion mediated by α4β1 (VLA-4)
T2 construct: the cells expressed the appropriate integrin receptor either endogenously (Jurkat/α4β1, K562/α5β1, Jurkat (a4-)/αLβ2, HSB/αLβ2); host or cells: Jurkat
T2 sequence (P13612 34-1032): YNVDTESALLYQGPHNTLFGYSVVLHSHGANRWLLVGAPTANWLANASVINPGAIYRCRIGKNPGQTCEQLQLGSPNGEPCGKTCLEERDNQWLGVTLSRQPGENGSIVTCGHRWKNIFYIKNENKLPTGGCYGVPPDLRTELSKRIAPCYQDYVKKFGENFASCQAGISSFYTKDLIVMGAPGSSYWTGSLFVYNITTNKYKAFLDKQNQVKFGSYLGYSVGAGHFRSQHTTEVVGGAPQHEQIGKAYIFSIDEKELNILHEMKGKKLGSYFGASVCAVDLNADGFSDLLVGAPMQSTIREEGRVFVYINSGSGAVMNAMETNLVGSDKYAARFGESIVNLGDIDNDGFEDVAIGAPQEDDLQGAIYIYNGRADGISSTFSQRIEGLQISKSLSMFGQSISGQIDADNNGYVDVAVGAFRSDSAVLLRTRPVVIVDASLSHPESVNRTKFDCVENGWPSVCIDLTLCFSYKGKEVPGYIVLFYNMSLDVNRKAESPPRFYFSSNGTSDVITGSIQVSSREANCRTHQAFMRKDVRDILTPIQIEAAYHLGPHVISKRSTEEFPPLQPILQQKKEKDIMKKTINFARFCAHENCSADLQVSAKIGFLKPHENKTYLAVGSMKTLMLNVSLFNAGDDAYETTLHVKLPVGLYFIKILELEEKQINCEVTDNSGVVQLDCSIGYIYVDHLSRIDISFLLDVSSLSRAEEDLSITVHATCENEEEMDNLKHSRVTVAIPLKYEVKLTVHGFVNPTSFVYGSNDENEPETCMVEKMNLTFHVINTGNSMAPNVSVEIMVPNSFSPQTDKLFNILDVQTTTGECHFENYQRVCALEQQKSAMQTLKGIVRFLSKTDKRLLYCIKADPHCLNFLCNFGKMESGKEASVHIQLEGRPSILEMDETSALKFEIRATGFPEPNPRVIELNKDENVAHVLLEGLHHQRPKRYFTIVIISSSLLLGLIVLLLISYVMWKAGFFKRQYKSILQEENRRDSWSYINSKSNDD
T2 sequence (P05556 21-798): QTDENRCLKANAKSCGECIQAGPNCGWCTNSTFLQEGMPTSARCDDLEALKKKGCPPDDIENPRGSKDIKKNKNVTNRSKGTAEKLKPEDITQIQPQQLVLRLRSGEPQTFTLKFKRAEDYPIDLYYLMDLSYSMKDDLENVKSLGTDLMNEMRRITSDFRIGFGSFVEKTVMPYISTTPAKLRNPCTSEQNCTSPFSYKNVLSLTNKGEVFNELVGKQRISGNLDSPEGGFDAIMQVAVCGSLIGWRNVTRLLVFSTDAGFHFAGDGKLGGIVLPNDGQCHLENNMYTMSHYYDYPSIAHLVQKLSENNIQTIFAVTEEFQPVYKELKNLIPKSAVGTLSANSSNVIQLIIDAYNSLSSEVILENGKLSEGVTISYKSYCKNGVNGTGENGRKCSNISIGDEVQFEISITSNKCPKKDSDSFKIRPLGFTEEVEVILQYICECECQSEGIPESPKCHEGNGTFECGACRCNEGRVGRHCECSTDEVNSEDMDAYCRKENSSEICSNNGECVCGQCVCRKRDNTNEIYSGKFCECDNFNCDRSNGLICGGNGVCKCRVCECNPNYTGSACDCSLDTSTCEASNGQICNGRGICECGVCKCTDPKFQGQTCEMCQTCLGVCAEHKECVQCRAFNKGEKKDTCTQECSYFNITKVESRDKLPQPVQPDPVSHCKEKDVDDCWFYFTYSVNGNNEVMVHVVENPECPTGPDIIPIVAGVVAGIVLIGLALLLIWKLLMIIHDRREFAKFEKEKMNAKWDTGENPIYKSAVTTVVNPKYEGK
Description: as §1, §2

Jurkat (a4-) cells = test: SDF-1α mediated migration assay across ICAM-1 coated membranes; type: cell-based; settings: 4-hour incubation, *p<0.05 (FIG. 3A&B)
Description: (§3) FIGS. 3A&B depicts activity of C4 in enhancing SDF-1α mediated migration of Jurkat T cell, an exemplary activated T-cell, across membranes coated with either VCAM-1 or ICAM-1 (*p<0.05).
(§4) Migration assays were performed in […] pore size Transwells (24 well, Costar, Cambridge, Mass.). The upper chambers were pre-coated with […] VCAM-1 or 1 μg/mL ICAM-1 in […] TBS overnight at 4° C. and were then blocked with 2% BSA for 1 hour at room temperature. After washing with migration medium (RPMI-1640 supplemented with 1% FBS, 100 units/mL penicillin and 100 μg/mL streptomycin), upper chambers were loaded with 2×10^5 cells Jurkat cells (VCAM-1 assays) or Jurkat (a4-) cells (ICAM-1 assays) in 160 μL of migration medium. Lower chambers contained 600 μL of migration medium supplemented with 5 µg/mL (VCAM-1 assays) or 1 μg/mL (ICAM-1 assays) SDF-1α to induce chemotaxis. Jurkat cells were mixed with vehicle (1% DMSO) or C4 at the indicated concentrations immediately prior to being added to the upper chamber. After a 4-hour incubation at 37° C., 5% CO2, the upper chambers were removed, and cells in the lower chamber were collected and counted on a hemocytometer. Results are expressed as the total number of cells migrated.

Jurkat cells = test: SDF-1α mediated migration assay across VCAM-1 coated membranes; type: cell-based; settings: 4-hour incubation; *p<0.05 (FIG. 3A&B)
Description: as §3, §4

K562 tumor target cells = test: NK cytotoxicity testing (NK cell cytolysis of tumor target cells); type: cell-based, human
Description: FIG. 1 depicts C4 enhancement of natural killer cell cytolysis of tumor target cells. Freshly isolated CD56+ natural killer cells were isolated from the peripheral blood of a healthy volunteer. Cells were either incubated with vehicle control (DMSO), or indicated concentrations of C4 for 4 h in the presence of tumor target cells (the erythroleukemic cell line K562). Data is presented as a percent increase in tumor cell killing.
FIG. 2 depicts the natural killer cell line NK-92, which was used at different effector to target ratios in the presence or absence of C4 (100 μM). Specific lysis of K562 cells is shown. All data are from triplicate determinations, and graphed as the mean+SD. […]
Human NK cells were purified from leukoreduction filters obtained from healthy volunteers using a CD56+ magnetic bead based enrichment column from Multenyi Biotech (as per manufacturer's instructions). Purified cells were routinely >90% CD56+ positive as measured by flow cytometry. […] After a 4 h incubation at 37° C., 5% CO2, culture supernatants were removed and liberated TDA (2,2′:6′,2″-terpyridine-6,6″-dicarboxylic acid) was detected by addition of DELFIA solution to form EuTDA, and fluorescence was measured on a Tecan Safire 2 multimodal plate reader. […] Results are expressed as the percent specific lysis, calculated as [(experimental signal−spontaneous release)/(total signal−spontaneous release).

B16-BL6 melanoma = test: Checkpoint blockade B16-BL6 melanoma model; type: in vivo, C57BL/6 mice; settings: C4 intratumorally 1 mg/kg twice weekly for 30 days from day 11
Description: C4 was tested in a B16-BL6 melanoma model to determine potential effects on the current checkpoint blockade therapy anti-CTLA-4. Briefly, thirty C57BL/6 were randomized into 3 groups (n=10). C4 was added to a regimen of GVAX®/anti-CTLA-4. Historically, these treatment regimens result in at best, a 20% tumor free survival. On day 0, B16-BL6 cells (2.5×10^4) were injected subcutaneously. GVAX®/anti-CTLA-4 (clone 9H10), or IgG controls, were administered on days 3, 6, and 9. On day 11, C4 treatment was initiated intratumorally twice weekly (1 mg/kg) for 30 days. Vehicle control was added to the IgG group.
The B16-BL6 therapeutic melanoma model is well described. Briefly, B16-BL6 cells (>90% viability) were be resuspended at 2.5×10^5 cells/ml in HBSS (4° C.). At day 0 (d0), C57BL/6 mice (4-6 wk old, female) were inoculated (subcutaneous, flank) with 2.5×10^4 cells (100 μL). At d3, appropriate groups received B16-GM-CSF vaccine (GVAX®). GVAX® preparation followed established procedures. Log-phase growth B16-GM-CSF cells were harvested as described above for B16-BL6 cells, but resuspended at 1×10^7 cells in HBSS (4° C.). Cells were irradiated (5000 rad) and injected into contralateral flanks (100 μL, […]). Also at d3, all animals received anti-CTLA-4 (mAb 9H10, BioXcell, 200 μg/animal, twice weekly). […] Animals were monitored daily for distress and survival was assessed twice daily. […]

| EC50 (αLβ2 (LFA-1)) [µM] | EC50 (α4β1 (VLA-4)) [µM] | Structure (SMILES) | SDF-1α mediated migration of Jurkat T cells across ICAM-1 coated membranes (Jurkat (a4-) cells) | SDF-1α mediated migration of Jurkat T cells across VCAM-1 coated membranes (Jurkat cells) | Killing (specific lysis) of K562 tumor target cells by NK-92 cell line (K562 tumor target cells; different effector to target ratios, C4 100 μM (FIG. 2)) | Killing of K562 tumor target cells by freshly isolated CD56+ NK cells (K562 tumor target cells; human NK cells from healthy volunteer, 4 h, with or without C4 (FIG. 1)) | Long term tumor free survival on addition to GVAX/anti-CTLA-4 (in words) (B16-BL6 melanoma) | Median survival benefit on addition to GVAX/anti-CTLA-4 (in words) (B16-BL6 melanoma) |
| --- | --- | --- | --- | --- | --- | --- | --- | --- |
| 11 | 11 | COc1ccc(CN(Cc2ccc(OC)cc2)C(=O)CCCCC(=O)N(Cc2ccc(OC)cc2)Cc2ccc(OC)cc2)cc1 [Compound C2, N^1,N^1,N^6,N^6-tetrakis(4-methoxybenzyl)adipamide] | – | – | – | – | – | – |
| 7 | 11 | COc1cccc(CN(Cc2cccc(OC)c2)C(=O)CCCCC(=O)N(Cc2cccc(OC)c2)Cc2cccc(OC)c2)c1 [Compound C3, N^1,N^1,N^6,N^6-tetrakis(3-methoxybenzyl)adipamide] | – | – | – | – | – | – |
| 26 | 32 | CCCC[C@@H](COC(=O)N(Cc1cccs1)Cc1cccs1)NC(=O)N[C@@H](CC(=O)OC)c1ccc2c(c1)OCO2 [Compound C1, (6S,10S)-methyl 10-(1,3-benzodioxol-5-yl)-6-butyl-3,8-dioxo-1-(2-thienyl)-2-(2-thienylmethyl)-4-oxa-2,7,9-triazadodecan-12-oate] | – | – | – | – | – | – |

| Structure (SMILES) | EC50 (αLβ2 (LFA-1)) [µM] | EC50 (α4β1 (VLA-4)) [µM] | SDF-1α mediated migration of Jurkat T cells across ICAM-1 coated membranes (Jurkat (a4-) cells) | SDF-1α mediated migration of Jurkat T cells across VCAM-1 coated membranes (Jurkat cells) | Killing (specific lysis) of K562 tumor target cells by NK-92 cell line (K562 tumor target cells; different effector to target ratios, C4 100 μM (FIG. 2)) | Killing of K562 tumor target cells by freshly isolated CD56+ NK cells (K562 tumor target cells; human NK cells from healthy volunteer, 4 h, with or without C4 (FIG. 1)) | Long term tumor free survival on addition to GVAX/anti-CTLA-4 (in words) (B16-BL6 melanoma) | Median survival benefit on addition to GVAX/anti-CTLA-4 (in words) (B16-BL6 melanoma) |
| --- | --- | --- | --- | --- | --- | --- | --- | --- |
| O=C(OCCOCCOCCOC(=O)N(Cc1cccs1)Cc1cccs1)N(Cc1cccs1)Cc1cccs1 [Compound C4, (ethane-1,2-diylbis(oxy))bis(ethane-2,1-diyl) bis(bis(thiophen-2-ylmethyl)carbamate)] | 11 | 14 | enhancing | enhancing | enhanced | enhanced | significant increase | significant median survival benefit |
